Measured values reported in patent US8574563B2 (Bristol-Myers Squibb Company, priority 2006, dated 2013).

test system: HCV 1b-377-neo replicon cells; experiment: HCV replicon assay, HCV 1b-377-neo replicon cells (1b FRET); format: cell-based, Hepatitis C virus genotype 1b; settings: HCV 1b-377-neo replicon cells; HCV 1b genotype; read-out: EC50 range against HCV 1b (Table 2, Range)
Summary of the method: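 Compounds tested in HCV genotype 1b-377-neo replicon cells with a FRET read-out. Cells resistant to a reference NS5A inhibitor through a Y2065H NS5A mutation were run alongside wild-type cells.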

Row | SMILES | EC50
1 | COC(=O)N[C@@H](C(=O)N1CCC[C@H]1c1ncc(-c2ccc(-c3ccc(-c4cnc([C@@H]5CCCN5C(=O)c5cnco5)[nH]4)cc3)cc2)[nH]1)c1ccccc1 [Example 72, methyl ((1R)-2-((2S)-2-(5-(4′-(2-((2S)-1-(1,3-oxazol-5-ylcarbonyl)-2-pyrrolidinyl)-1H-imidazol-5-yl)-4-biphenylyl)-1H-imidazol-2-yl)-1-pyrrolidinyl)-2-oxo-1-phenylethy)carbamate] | 1 to 99 nM
2 | COC(=O)N[C@@H](C(=O)N1CCC[C@H]1c1ncc(-c2ccc(-c3ccc(-c4cnc([C@@H]5CCCN5C(=O)Cc5ccccc5CN5CCCCC5)[nH]4)cc3)cc2)[nH]1)c1ccccc1 [Example 84-85, methyl ((1R)-2-oxo-1-phenyl-2-((2S)-2-(5-(4′-(2-((2S)-1-((2-(1-piperidinylmethyl)phenyl)acetyl)-2-pyrrolidinyl)-1H-imidazol-5-yl)-4-biphenylyl)-1H-imidazol-2-yl)-1-pyrrolidinyl)ethyl)carbamate] | 0.001 to 0.999 nM

same assay, conditions: Hepatitis C virus, HCV 1b-377-neo replicon cells; HCV 1b genotype; read-out: EC50 range against HCV 1b (Table 2, Range)

Row | SMILES | EC50
3 | CC(C)(C)OC(=O)N1CC(C(=O)N2CCC[C@H]2c2ncc(-c3ccc(-c4ccc(-c5cnc([C@@H]6CCCN6C(=O)[C@@H](c6ccccc6)N6CCCCC6)[nH]5)cc4)cc3)[nH]2)C1 [Example 107-12, tert-butyl 3-(((2S)-2-(5-(4′-(2-((2S)-1-((2R)-2-phenyl-2-(1-piperidinyl)acetyl)-2-pyrrolidinyl)-1H-imidazol-5-yl)-4-biphenylyl)-1H-imidazol-2-yl)-1-pyrrolidinyl)carbonyl)-1-azetidinecarboxylate] | 0.001 to 0.999 nM
4 | COC(=O)N[C@H](C(=O)N1CCC[C@H]1c1nc(-c2cnc(-c3ccc(-c4cnc([C@@H]5CCCN5C(=O)[C@@H](NC(=O)OC)[C@@H](C)OC)[nH]4)c(F)c3)nc2)c[nH]1)[C@@H](C)OC [Example D70, methyl ((1S,2R)-1-(((2S)-2-(5-(2-fluoro-4-(5-(2-((2S)-1-(N-(methoxycarbonyl)-O-methyl-L-threonyl)-2-pyrrolidinyl)-1H-imidazol-5-yl)-2-pyrimidinyl)phenyl)-1H-imidazol-2-yl)-1-pyrrolidinyl)carbonyl)-2-methoxypropyl) carbamate] | 0.001 to 0.999 nM
5 | COC(=O)N[C@@H](C(=O)N1CC2(CC2)C[C@H]1c1nc(-c2ccc(-c3ccc(-c4c[nH]c([C@@H]5CC6(CC6)CN5C(=O)[C@H](NC(=O)OC)c5ccccc5)n4)cc3)cc2)c[nH]1)c1ccccc1 [Example M150, dimethyl (4,4′-biphenyldiylbis(1H-imidazole-4,2-diyl(6S)-5-azaspiro[2.4]heptane-6,5-diyl((1R)-2-oxo-1-phenyl-2,1-ethanediyl)))biscarbamate] | 0.001 to 0.999 nM
6 | CN[C@@H](C)C(=O)N1CCC[C@H]1c1ncc(-c2ccc(-c3ccc(-c4cnc([C@@H]5CCCN5C(=O)[C@H](C)NC)[nH]4)cc3)cc2)[nH]1 [LS6, (2S,2′S)-1,1′-(4,4′-biphenyldiylbis(1H-imidazole-5,2-diyl(2S)-2,1-pyrrolidinediyl))bis(N-methyl-1-oxo-2-propanamine)] | 100 to 999 nM
7 | CCN(CC)[C@@H](C(=O)N1CCC[C@H]1c1ncc(-c2ccc(-c3ccc(-c4cnc([C@@H]5CCCN5C(=O)[C@H](Cc5cncn5C)NC(=O)OC)[nH]4)cc3)cc2)[nH]1)c1ccccc1 [cj-44, methyl ((1S)-2-((2S)-2-(5-(4′-(2-((2S)-1-((2R)-2-(diethylamino)-2-phenylacetyl)-2-pyrrolidinyl)-1H-imidazol-5-yl)-4-biphenylyl)-1H-imidazol-2-yl)-1-pyrrolidinyl)-1-((1-methyl-1H-imidazol-5-yl)methyl)-2-oxoethyl)carbamate] | 0.001 to 0.999 nM
8 | CN(C)C(C(=O)N1CCC[C@H]1c1ncc(-c2ccc(-c3ccc(-c4cnc([C@@H]5CCCN5C(=O)[C@@H](c5ccccc5)N(C)C)[nH]4)cc3)cc2)[nH]1)c1ccccn1 (stereo partly drawn) [Example 94-46, 2-((2S)-2-(5-(4′-(2-((2S)-1-((2R)-2-(dimethylamino)-2-phenylacetyl)-2-pyrrolidinyl)-1H-imidazol-5-yl)-4-biphenylyl)-1H-imidazol-2-yl)-1-pyrrolidinyl)-N,N-dimethyl-2-oxo-1-(2-pyridinyl)ethanamine] | 0.001 to 0.999 nM
9 | CC[C@@H](C(=O)N1CCC[C@H]1c1ncc(-c2ccc(-c3ccc(-c4cnc([C@@H]5CCCN5C(=O)[C@@H](NC(=O)OC)C(C)C)[nH]4)cc3)cc2)[nH]1)N(CC)CC [Example M86, methyl ((1S)-1-(((2S)-2-(5-(4′-(2-((2S)-1-((2S)-2-(diethylamino)butanoyl)-2-pyrrolidinyl)-1H-imidazol-5-yl)-4-biphenylyl)-1H-imidazol-2-yl)-1-pyrrolidinyl)carbonyl)-2-methylpropyl)carbamate] | 1 to 99 nM
10 | CCN(CC)[C@H](COC)C(=O)N1CCC[C@H]1c1ncc(-c2ccc(-c3ccc(-c4cnc([C@@H]5CCCN5C(=O)[C@@H](NC(=O)OC)C(C)C)[nH]4)cc3)cc2)[nH]1 [Example M91, methyl ((1S)-1-(((2S)-2-(5-(4′-(2-((2S)-1-(N,N-diethyl-O-methyl-D-seryl)-2-pyrrolidinyl)-1H-imidazol-5-yl)-4-biphenylyl)-1H-imidazol-2-yl)-1-pyrrolidinyl)carbonyl)-2-methylpropyl)carbamate] | 1 to 99 nM
11 | COC(=O)c1nc([C@@H]2CCCN2C(=O)[C@@H](c2ccccc2)N2CCCCC2)[nH]c1-c1ccc(-c2ccc(-c3cnc([C@@H]4CCCN4C(=O)[C@@H](c4ccccc4)N4CCCCC4)[nH]3)cc2)cc1 [Example J18, methyl 2-((2S)-1-((2R)-2-phenyl-2-(1-piperidinyl)acetyl)-2-pyrrolidinyl)-5-(4′-(2-((2S)-1-((2R)-2-phenyl-2-(1-piperidinyl)acetyl)-2-pyrrolidinyl)-1H-imidazol-5-yl)-4-biphenylyl)-1H-imidazole-4-carboxylate] | 0.001 to 0.999 nM
12 | COC(=O)N[C@@H](C(=O)N1CCC[C@H]1c1ncc(-c2ccc(-c3ccc(-c4cnc([C@@H]5CCCN5C(=O)[C@H](NC(=O)OC)c5ccccc5)[nH]4)cc3CN(C)C)cc2)[nH]1)c1ccccc1 [Example M121] | 100 to 999 nM
13 | COC(=O)N[C@H](C(=O)N1C[C@H](O)C[C@H]1c1ncc(-c2ccc(-c3ccc(-c4cnc([C@@H]5C[C@@H](O)CN5C(=O)[C@@H](NC(=O)OC)C(C)C)[nH]4)cc3)cc2)[nH]1)C(C)C [JG-5, methyl ((1S)-1-(((2S,4R)-4-hydroxy-2-(5-(4′-(2-((2S,4R)-4-hydroxy-1-((2S)-2-((methoxycarbonyl)amino)-3-methylbutanoyl)-2-pyrrolidinyl)-1H-imidazol-5-yl)-4-biphenylyl)-1H-imidazol-2-yl)-1-pyrrolidinyl)carbonyl)-2-methylpropyl)carbamate] | 0.001 to 0.999 nM
14 | COC(=O)N[C@@H](C)C(=O)N1CCC[C@H]1c1ncc(-c2ccc(-c3ccc(-c4cnc([C@@H]5CCCN5C(=O)[C@H](O)c5ccccc5)[nH]4)cc3)cc2)[nH]1 [Example M98, methyl ((1S)-2-((2S)-2-(5-(4′-(2-((2S)-1-((2R)-2-hydroxy-2-phenylacetyl)-2-pyrrolidinyl)-1H-imidazol-5-yl)-4-biphenylyl)-1H-imidazol-2-yl)-1-pyrrolidinyl)-1-methyl-2-oxoethyl)carbamate] | 1 to 99 nM
15 | COC(=O)NCC(=O)N1[C@H](c2ncc(-c3ccc(-c4ccc(-c5cnc([C@@H]6C[C@@H]7C[C@@H]7N6C(=O)CNC(=O)OC)[nH]5)cc4)cc3)[nH]2)C[C@@H]2C[C@@H]21 [Example M129, methyl (2-((1S,3S,5S)-3-(5-(4′-(2-((1S,3S,5S)-2-(((methoxycarbonyl)amino)acetyl)-2-azabicyclo[3.1.0]hex-3-yl)-1H-imidazol-5-yl)-4-biphenylyl)-1H-imidazol-2-yl)-2-azabicyclo[3.1.0]hex-2-yl)-2-oxoethyl)carbamate] | 1000 to 10000 nM
16 | CC(C)[C@H](NS(C)(=O)=O)C(=O)N1CCC[C@H]1c1nc(-c2ccc(-c3ccc(-c4c[nH]c([C@@H]5CCCN5C(=O)[C@@H](NS(C)(=O)=O)C(C)C)n4)cc3)cc2)c[nH]1 [Example F66, N-((1S)-2-methyl-1-(((2S)-2-(4-(4′-(2-((2S)-1-((2S)-3-methyl-2-((methylsulfonyl)amino)butanoyl)-2-pyrrolidinyl)-1H-imidazol-4-yl)-4-biphenylyl)-1H-imidazol-2-yl)-1-pyrrolidinyl)carbonyl)propyl)methanesulfonamide] | 1 to 99 nM
17 | CN(C)[C@@H](C(=O)N1CCC[C@H]1c1ncc(-c2ccc(-c3ccc(-c4cnc([C@@H]5CCCN5C(=O)[C@@H](c5ccccc5)N(C)C)[nH]4)cc3C(F)(F)F)cc2)[nH]1)c1ccccc1 [Example 130] | 0.001 to 0.999 nM
18 | CC(C)[C@@H](O)C(=O)N1[C@@H](C)CC[C@H]1c1nc(-c2ccc(-c3ccc(-c4c[nH]c([C@@H]5CC[C@H](C)N5C(=O)[C@H](O)C(C)C)n4)cc3)cc2)c[nH]1 [Example M160, (2R,2′R)-1,1′-(4,4′-biphenyldiylbis(1H-imidazole-4,2-diyl((2S,5S)-5-methyl-2,1-pyrrolidinediyl)))bis(3-methyl-1-oxo-2-butanol)] | 1 to 99 nM
19 | COC(=O)N[C@@H](C(=O)N1CCC[C@H]1c1ncc(-c2ccc(-c3ccc(-c4cnc([C@@H]5CCCN5C(=O)[C@@H]5CCN(Cc6ccccc6)C5)[nH]4)cc3)cc2)[nH]1)c1ccccc1 [Example 84-17, methyl ((1R)-2-((2S)-2-(5-(4′-(2-((2S)-1-(((3R)-1-benzyl-3-pyrrolidinyl)carbonyl)-2-pyrrolidinyl)-1H-imidazol-5-yl)-4-biphenylyl)-1H-imidazol-2-yl)-1-pyrrolidinyl)-2-oxo-1-phenylethyl)carbamate] | 0.001 to 0.999 nM
20 | O=C(Cc1cccnc1)N[C@@H](C(=O)N1CCC[C@H]1c1ncc(-c2ccc(-c3ccc(-c4c[nH]c([C@@H]5CCCN5C(=O)[C@H]5CCCO5)n4)cc3)cc2)[nH]1)c1ccccc1 [Example 120-7, N-((1R)-2-oxo-1-phenyl-2-((2S)-2-(5-(4′-(2-((2S)-1-((2R)-tetrahydro-2-furanylcarbonyl)-2-pyrrolidinyl)-1H-imidazol-4-yl)-4-biphenylyl)-1H-imidazol-2-yl)-1-pyrrolidinyl)ethyl)-2-(3-pyridinyl)acetamide] | 0.001 to 0.999 nM
